Results reported in the METLIN SMRT retention time set (Domingo-Almenara et al. 2019).

experiment: gradient 5% acetonitrile 3 min, to 50% in 2 min, to 85% in 15 min, held 3 min, 100 µL/min; conditions: column: Zorbax Extend-C18 2.1 x 50 mm; eluents: water / acetonitrile, 0.1% formic acid
Method in brief: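 Each retention time is based on an adduct peak selected computationally and verified by manual inspection. Measurements used HPLC–quadrupole time-of-flight mass spectrometry in positive and negative ionization mode on mixtures of ~100 pure standards. Chromatography ran on a Zorbax Extend-C18 column (2.1 × 50 mm, 1.8 μm) at 100 μL/min with water and acetonitrile, each containing 0.1% formic acid, and dead and dwell volumes of 40 μL and 900 μL.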

Row | SMILES | RP-LC retention time
1 | Cc1cccc(NC(=O)Cn2ccc3sccc3c2=O)c1C | 741 s
2 | O=C(Nc1cnc(N2CCCC2)nc1)c1cccs1 | 667 s
3 | CSc1ccccc1C(=O)N1CCC(C(=O)NCc2nc(C)no2)CC1 | 628 s
4 | Clc1cccc(-c2nnc(-c3nc(NC4CCCC4)c4ccccc4n3)o2)c1 | 1170 s
5 | COc1cccc(-c2noc(CN3C(=O)COc4ccc(Cl)cc43)n2)c1 | 1070 s
6 | Cc1ccc(-c2nc(C3CC(=O)N(c4ccc(F)c(Cl)c4)C3)no2)cc1C (centres undefined) | 1090 s
7 | COc1ccc2[nH]cc(CCN3CC(C(=O)Nc4nnc(C(C)(C)C)s4)CC3=O)c2c1 (centres undefined) | 744 s
8 | COc1cccc(CNC(=O)c2nnc(-c3ccc(S(=O)(=O)N(C)C)cc3)o2)c1 | 827 s
9 | Cc1cc(NC(=O)CSc2nnc(C(C)C)c3cnn(-c4ccc(C)c(C)c4)c23)no1 | 845 s
10 | Cc1nc2cccnc2n1CC1CCCN(S(=O)(=O)c2ccc3c(c2)CCCC3)C1 (centres undefined) | 831 s
11 | Cc1ccc2c(C(=O)O)cc(NC(=O)C3CCC3)cc2n1 | 574 s
12 | CCOCCOC1CCN(S(=O)(=O)Cc2ccccc2F)CC1 | 877 s
13 | CCOC(=O)C1CCN(S(=O)(=O)c2cc(-c3nnc(-c4ccccc4)o3)ccc2OC)CC1 | 976 s
14 | Cc1nn(-c2nc(-c3ccc(Cl)cc3)cs2)c(C)c1CC(=O)N1CCCCC1 | 1260 s
15 | Cc1noc([C@@H]2CN(C(=O)c3ccsc3)C[C@H]2C(N)=O)n1 | 601 s
16 | O=C(CCC(=O)N1CC2CCCN2c2ccccc21)NCCCN1CCCCC1 (centres undefined) | 646 s
17 | COC(=O)c1cc(S(=O)(=O)N2CCCC2C(=O)Nc2ccc3c(c2)OCCO3)cn1C (centres undefined) | 794 s
18 | CCCN1CCn2cc(S(=O)(=O)Nc3ccccc3F)cc2C1=O | 718 s
19 | Cc1ccc(NC(=O)Cn2c(=O)c3cc(C4CC4)nn3c3ncccc32)c(C)c1 | 808 s

Row | SMILES | RP-LC retention time
20 | Cc1ccc(CNC(=O)C2Cn3cccc3C(=O)N2)o1 (centres undefined) | 633 s
21 | CCC(=O)N1CCc2cc(C)c(S(=O)(=O)NCc3ccco3)cc21 | 664 s
22 | CC(C)CC(=O)Nc1ccc(-n2cnc(C(=O)NC3CCCC3)c2)nc1 | 772 s
23 | Cc1ccc(S(=O)(=O)N2CCc3ccc(NC(=O)Cc4cccs4)cc3C2)cc1 | 942 s
24 | Cc1nn(CC(=O)N2CCc3ccccc3C2)c(=O)c2nn(-c3ccccc3)c(C)c12 | 820 s
25 | COc1ccc(C2(C(=O)N3CCC(Oc4ccccc4-c4nc(C)no4)C3)CC2)cc1 (centres undefined) | 880 s
26 | COc1ccc(NC2=NS(=O)(=O)C(c3ccc(OC)cc3)=C2C)cc1 | 910 s
27 | CC(C)NC(=O)Cn1cccc1-c1nc(-c2ccc3c(c2)OCO3)no1 | 925 s
28 | Cc1ccccc1NC(=O)N1CCC2(C1)C(=O)N(C)c1ccccc12 (centres undefined) | 772 s
29 | COc1ccc(OC)c(CNC(=O)C2=C3CCCN3c3ccc(F)cc3S2(=O)=O)c1 | 872 s
30 | CN(CC1CCOC1)C(=O)c1ccc(F)c(F)c1 (centres undefined) | 683 s
31 | Cc1noc(-c2ccc(=O)n(C(C)C)n2)n1 | 715 s
32 | O=S(=O)(c1ccc2c(c1)-c1oncc1CO2)N1CCCc2ccccc21 | 1020 s
33 | O=C(Nc1ccc(OCc2nnc(-c3ccc(Cl)cc3)o2)cc1)c1ccccn1 | 990 s
34 | O=C(NCCc1cccs1)c1cccc2c1CCN2C(=O)Nc1ccccc1 | 895 s
35 | Cc1ccc(-c2nnc(CC(=O)NCC(C)C)o2)cc1 | 775 s
36 | CCN(C(=O)C1CCCN1S(=O)(=O)c1cc2c(cc1C)NC(=O)C(C)O2)c1ccccc1 (centres undefined) | 814 s
37 | Cc1ccc(F)c(NS(=O)(=O)c2cc3c(s2)CCN(C(=O)C2CC2)C3)c1 | 848 s
38 | O=c1c2cc3c(cc2nc(SCc2nc(-c4ccc(F)cc4)no2)n1Cc1ccncc1)OCO3 | 799 s

Row | SMILES | RP-LC retention time
39 | O=C(Nc1c(-c2ccc(F)cc2)nc2ccccn12)c1ccc(Br)cc1 | 716 s
40 | Cc1ccc(S(=O)(=O)N2CCC(CN3CCCCCC3)CC2)cc1Cl | 721 s
41 | Cc1cc(C(N)=O)c2cc(C(C)C)ccc2n1 | 591 s
42 | COc1ccc2[nH]c(-c3ccccc3)cc2c1 | 1040 s
43 | CCOC(=O)C1CCN(C(=O)C2COC3(CCCCC3)N2C(=O)c2cccc(Cl)c2)CC1 (centres undefined) | 958 s
44 | O=C(c1noc2ccc(S(=O)(=O)N3CCCc4ccccc43)cc12)N1CCCC1 | 1060 s
45 | Cc1ccc(N2CC(c3noc(-c4ccc(C#N)cc4)n3)CC2=O)cc1 (centres undefined) | 947 s
46 | CC1(C)CC(=O)c2c(nc(N3CCN(c4ncccn4)CC3)nc2Nc2ccccc2)C1 | 1330 s
47 | O=C(Nc1ncc([N+](=O)[O-])s1)c1ccc([N+](=O)[O-])c(Cl)c1 | 946 s
48 | COCCn1cc(CCNC(=O)Nc2cccc(F)c2C)c2cccnc21 | 774 s
49 | CCc1nn2c(CNS(=O)(=O)c3ccc(F)cc3)c(-c3ccccc3)nc2s1 | 932 s
50 | Cc1sc2ncnc(N3CCCC(C)C3)c2c1C(=O)Nc1cc(F)ccc1Cl (centres undefined) | 1450 s
51 | CCc1ccc(Nc2nc(C(=O)NCCCOC)nc3ccccc23)cc1 | 750 s
52 | CN(C)c1ccc(CNC(=O)C2CCN(c3cc(N4CCSCC4)ncn3)CC2)cc1 | 579 s
53 | O=c1n(CCOc2ccc(F)cc2)nc2ccc(S(=O)(=O)N3CCOCC3)cn12 | 811 s
54 | O=C(NC1CC1)C1c2ccccc2CC(=O)N1Cc1ccccc1 (centres undefined) | 750 s
55 | Cc1ccccc1S(=O)(=O)Nc1ccc(C2(C(=O)NCC3CCCO3)CC2)cc1 (centres undefined) | 797 s
56 | O=C(NC1CC1)[C@@H]1C[C@H](Oc2ccccc2)CN1C(=O)C1CCC1 | 735 s
57 | O=C(c1cccs1)N1CCC2(CC1)N=C(c1ccccc1)NO2 | 747 s

The next lines start with the values.

Row | RP-LC retention time | SMILES
58 | 1000 s | CCn1c(=O)c(N2CCCC(C(=O)N3CCCCCC3)C2)nc2cccnc21 (centres undefined)
59 | 676 s | CCC1CCCCN1Cc1nc(Cn2ccn3nc(-c4ccccc4)cc3c2=O)no1 (centres undefined)
60 | 707 s | CC(C)NC(=O)N(C1CC1)C1CCOC2(CCN(C(=O)c3ccco3)CC2)C1 (centres undefined)
61 | 655 s | CCCNC(=O)C1CCCN(c2ccc(SCC(=O)Nc3ccccc3C)nn2)C1 (centres undefined)
62 | 760 s | Nc1nc(Nc2ccc3c(c2)CC[C@@H](N2CCCC2)CC3)nn1-c1cc2c(nn1)-c1ccccc1CCC2
63 | 610 s | CCC(C)NC(=O)Cn1cnc2nc(N3CCCC(C(=O)NC4CC4)C3)sc2c1=O (centres undefined)
64 | 910 s | Cc1csc(-c2ccc(N3CCN(C(=O)c4cc(F)ccc4Cl)CC3)nc2)n1
65 | 716 s | COc1ccc(C(=O)N2C[C@@H]3C[C@H](NC(=O)c4ccccc4)[C@H]2C3)c(OC)c1
66 | 673 s | Cc1nc2cccnc2n1C1CCN(C(=O)Nc2cccc(Br)c2)CC1
67 | 842 s | O=C(O)CSc1ccc(NC(=O)Nc2ccccc2F)cc1
68 | 766 s | O=C(Cn1cccc1-c1nnc(C2CCC2)o1)NCCc1ccc(Cl)cc1
69 | 664 s | COc1ccc(NC(=O)N2CC(N(C3CCOCC3)S(C)(=O)=O)C2)c(C)c1
70 | 607 s | CCC(=O)N1CCN(c2nc3c(s2)CC(C(=O)Nc2ccc(C)cc2Cl)CC3)CC1 (centres undefined)
71 | 602 s | CC1=C(c2ccc(F)cc2)S(=O)(=O)N=C1N1CCCN(C(=O)NC(C)(C)C)CC1
72 | 984 s | C=CCNc1nc(-c2ccc(Cl)cc2)cs1
73 | 661 s | CC1=C(c2ccc(C)c(C)c2)S(=O)(=O)N=C1N1CCC(C(=O)NCCN2CCCC2)CC1

Row | RP-LC retention time | SMILES
74 | 1070 s | CCOc1ccc(-c2nc(-c3ccc4nnn(C)c4c3)no2)cc1
75 | 934 s | COc1cccc(CNC(=O)C2(C)CCN(C(=O)Nc3ccc(Br)c(C)c3)CC2)c1
76 | 613 s | CCN(Cc1ccc(OC)cc1)Cc1cc(=O)c2cc(F)ccc2[nH]1
77 | 561 s | COc1ccc(C(=O)c2cnc3ccc(OC)cc3c2N2CCN(C)CC2)cc1
78 | 638 s | Cc1ccc(S(=O)(=O)N2CCC3(CC2)CN(C)CC3c2noc(C3CC3)n2)cc1 (centres undefined)
79 | 603 s | Cc1cccn2c(=O)cc(CN(C)Cc3ccccc3)nc12
80 | 964 s | CCNc1nc(N(CC)CC)nc(-n2cnc(SC)n2)n1
81 | 854 s | CCc1nc2c(=O)n(CC(=O)N3CCN(c4ccc(Cl)cc4)CC3)nc(C)c2s1
82 | 916 s | Cc1ccc(NC(=O)C2CCN(S(=O)(=O)c3cc(C(=O)N4CCCC4)cs3)CC2)cc1Cl
83 | 598 s | CCOC(=O)c1c(CN(C)C)n(C)c2cc(C#N)c(O)cc12
84 | 683 s | CCn1cnc2cc(-c3noc(C(C)NS(=O)(=O)c4ccc(C)cc4)n3)ccc21 (centres undefined)
85 | 607 s | CN(C)c1ccc(CNC(=O)C2CCN(S(=O)(=O)c3ccc4c(c3)CCCC(=O)N4)CC2)cc1
86 | 688 s | O=C(NC1CC1)c1ccc(-c2ccsc2)nc1
87 | 685 s | CC(=O)Nc1nc(-c2ccc3c(c2)NC(=O)C(C)O3)cs1 (centres undefined)
88 | 696 s | COc1ccccc1NC(=O)Cn1nc2c(N3CCCCCC3)nccn2c1=O
89 | 752 s | Cc1ccc(-c2nc3n(CC(=O)N4CCCC4)c4c(c(=O)n3n2)CCC4)cc1
